The nature of data set [1]: Solubility comparison in pH 1.8 SGF and high purity water, saturated solutions determined by HPLC. The data set is classed as physicochemical. Particulars: for solubility at 1 h / solubility at 4 h / solubility at 24 h: thermodynamic from solid; for Solubility in comparison to maleate Form II in CN101918390B: pH 1.8 SGF and high purity water, after 1, 4 and 24 hours; for Solubility: maleate. The method, then:
Maleate crystalline Form A, Form B of the present invention and maleate Form II in CN101918390B were added in pH 1.8 SGF (simulated gastric fluid), and in high purity water to obtain suspensions. Concentrations in the saturation solutions were determined after 1 hour, 4 hours and 24 hours by HPLC.

Data set [2] is described as follows: Stability assessment on storage, XRPD patterns collected after storage. The data set is classed as physicochemical. The conditions noted are these: maleate. The procedure: Form B in the present invention were stored under 5° C., 25° C./60% relative humidity and 40° C./75% RH for 90 days. XRPD patterns were collected after storage.
Form C of the present invention was stored under 5° C., 25° C./60% RH and 40° C./75% relative humidity for 330 days. XRPD patterns were collected after storage.

Data set [3] in a line: Hygroscopicity by dynamic vapor sorption (DVS). In kind it is physicochemical. Particulars: DVS at 25° C., 80% RH; maleate. The procedure: Hygroscopicity of 10 mg of Form C of the present invention was tested using dynamic vapor sorption (DVS) at 25° C. […].
About hygroscopicity characterization description and definition of hygroscopicity (Chinese Pharmacopoeia 2010 edition appendix XIXJ Drug hygroscopic test guidelines, test at 25° C.+/−1° C., 80% Relative Humidity) • deliquescent: sufficient water is absorbed to form a liquid; • very hygroscopic: increase in mass is equal to or greater than 15 percent; • hygroscopic: increase in mass is less than 15 percent and equal to or greater than 2 percent; • slightly hygroscopic: increase in mass is less than 2 percent and equal to or greater than 0.2 percent. • no or almost no hygroscopic: increase in mass is less than 0.2%

The nature of data set [4]: Stability comparison: 1:1 mixed suspension of Form C and Form II stirred in solvent, solid tested by XRPD. In kind it is physicochemical. The conditions noted are these: nitromethane, 24 hours, Form C versus Form II. The method, then: 10.0 mg of maleate crystalline Form C and maleate crystalline Form II in CN101918390B were mixed at a ratio of 1:1 and added into 1.0 mL of solvent to obtain a suspension. The suspension was magnetically stirred at 500 rpm at 25° C. for 24 hours, and centrifuged to give a solid which was tested by XRPD.

The conditions of data set [5]: as disclosed in CN101918390B; cited from earlier work.

In brackets after ≈: the same amount, converted by molar mass. Entries after “also recorded” stand apart in the source; their conditions may differ. Structures can show the parent of a compound that is named as a salt.

Turning to `CCOc1cc2ncc(C#N)c(Nc3ccc(OCc4ccccn4)c(Cl)c3)c2cc1NC(=O)/C=C/CN(C)C` [Form A, (2E)-N-[4-[[3-chloro-4-[(pyridin-2-yl)methoxy]phenyl]amino]-3-cyano-7-ethoxyquinolin-6-yl]-4-(dimethylamino)but-2-enamide maleate], the solubility at 1 h in data set [1] (pH 1.8, simulated gastric fluid, pH 1.8 SGF, 1 h) is over 8400 µg/mL; in data set [1] (water, H2O (high purity water), 1 h), over 3900 µg/mL. Also, the solubility at 4 h in data set [1] (pH 1.8, simulated gastric fluid, pH 1.8 SGF, 4 h) is over 8400 µg/mL; in data set [1] (water, H2O (high purity water), 4 h), over 3900 µg/mL. Besides, the solubility at 24 h in data set [1] (pH 1.8, simulated gastric fluid, pH 1.8 SGF, 24 h) is over 8400 µg/mL; in data set [1] (water, H2O (high purity water), 24 h) it was over 3900 µg/mL. In addition, the “Solubility in comparison to maleate Form II in CN101918390B” value in data set [1] was “higher solubility”.
Regarding `CCOc1cc2ncc(C#N)c(Nc3ccc(OCc4ccccn4)c(Cl)c3)c2cc1NC(=O)/C=C/CN(C)C` [Form B, (2E)-N-[4-[[3-chloro-4-[(pyridin-2-yl)methoxy]phenyl]amino]-3-cyano-7-ethoxyquinolin-6-yl]-4-(dimethylamino)but-2-enamide maleate], the “Form Change” value in data set [2] (5° C., 90 days) is “remains unchanged; also recorded: Form B doesn't change”; in data set [2] (25° C./60% RH, 90 days), “remains unchanged; also recorded: Form B doesn't change”; in data set [2] (40° C./75% RH, 90 days), “remains unchanged; also recorded: Form B doesn't change”. The Solubility is over 5400 µg/mL in data set [1] (H2O (high purity water), 1 h); over 5400 µg/mL in data set [1] (H2O (high purity water), 4 h); over 5400 µg/mL in data set [1] (H2O (high purity water), 24 h); over 6700 µg/mL in data set [1] (pH 1.8 SGF, 1 h); over 6700 µg/mL in data set [1] (pH 1.8 SGF, 4 h); over 6700 µg/mL in data set [1] (pH 1.8 SGF, 24 h). In data set [1], the “Solubility in comparison to maleate Form II in CN101918390B” value is given as “higher solubility”.
For `CCOc1cc2ncc(C#N)c(Nc3ccc(OCc4ccccn4)c(Cl)c3)c2cc1NC(=O)/C=C/CN(C)C` [Form C, (2E)-N-[4-[[3-chloro-4-[(pyridin-2-yl)methoxy]phenyl]amino]-3-cyano-7-ethoxyquinolin-6-yl]-4-(dimethylamino)but-2-enamide maleate], the “Form Change” value in data set [2] (5° C., 330 days) is “remains unchanged; also recorded: Form C doesn't change”; in data set [2] (25° C./60% RH, 330 days), “remains unchanged; also recorded: Form C doesn't change”; in data set [2] (40° C./75% RH, 330 days), “remains unchanged; also recorded: Form C doesn't change”. Further, the “weight increment under 80% Relative Humidity” value in data set [3] is 1.01%. The “Stability comparison (form conversion in mixed suspension)” value in data set [4] (maleate) was “more stable than maleate crystalline Form II”.
Regarding `CCOc1cc2ncc(C#N)c(Nc3ccc(OCc4ccccn4)c(Cl)c3)c2cc1NC(=O)/C=C/CN(C)C` [Form II, reference compound], in data set [4], the “Stability comparison (form conversion in mixed suspension)” value is reported as “transferred to crystalline Form C”. The solubility at 1 h in data set [1] (simulated gastric fluid (SGF), simulated gastric fluid, pH 1.8 SGF, 1 h) was 3300 µg/mL (≈ 5.92 mM); in data set [1] (H2O (high purity water), 1 h), 1000 µg/mL (≈ 1.8 mM). Besides, the solubility at 4 h in data set [1] (simulated gastric fluid (SGF), simulated gastric fluid, pH 1.8 SGF, 4 h) is 3200 µg/mL (≈ 5.74 mM); in data set [1] (H2O (high purity water), 4 h) it was 940 µg/mL (≈ 1.69 mM). Besides, the solubility at 24 h in data set [1] (simulated gastric fluid (SGF), simulated gastric fluid, pH 1.8 SGF, 24 h) is 3100 µg/mL (≈ 5.56 mM); in data set [1] (H2O (high purity water), 24 h) it was 940 µg/mL (≈ 1.69 mM).
As to `CCOc1cc2ncc(C#N)c(Nc3ccc(OCc4ccccn4)c(Cl)c3)c2cc1NC(=O)/C=C/CN(C)C` [Form I], in data set [5], the “Form conversion by absorbing moisture in the air” value is “can easily convert to Form II”.

(Values after patent US10246437B2, “Crystal form of neratinib maleate and preparation method therefor” (CRYSTAL PHARMATECH CO., LTD, priority 2015, dated 2019).)
